# Assay results: publication PMC3949521 (Acta Crystallographica Section D: Biological Crystallography, 2014)
# Target: T1, B. megaterium PBGD (Priestia megaterium, UniProt Q8GCA8)
# T1 construct: gene hemC; His tag removed for crystals; gene encodes 310 residues; about 35 kDa; monomer; cofactor on Cys241; residues 42-62 disordered
# Assay: X-ray crystal structure, […] and […] Å
# Assay type: binding
# Conditions: covalent (thioether to Cys241), pH 6.5-6.8, partial occupancy
# T1 sequence (Q8GCA8 entry or part of it): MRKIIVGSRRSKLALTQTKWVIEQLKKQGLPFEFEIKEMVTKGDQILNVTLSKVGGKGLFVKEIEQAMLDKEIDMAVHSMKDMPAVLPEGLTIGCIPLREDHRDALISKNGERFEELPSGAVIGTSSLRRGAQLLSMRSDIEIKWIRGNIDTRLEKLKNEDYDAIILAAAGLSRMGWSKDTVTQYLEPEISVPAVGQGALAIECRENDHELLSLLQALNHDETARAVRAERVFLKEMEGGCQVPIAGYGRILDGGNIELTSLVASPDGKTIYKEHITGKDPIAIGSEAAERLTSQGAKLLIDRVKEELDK
SMILES,"X-ray crystal structure, 1.46 and 1.60 Å (X-ray cannot tell dipyrromethane from dipyrromethene, PDB also 4mlq)","X-ray crystal structure, 1.46 and 1.60 Å (shared with reduced conformer, inactive oxidized form, PDB also 4mlv)"
N[C@@H](CSCc1[nH]c(Cc2[nH]cc(CCC(=O)O)c2CC(=O)O)c(CCC(=O)O)c1CC(=O)O)C(=O)O [dipyrromethane cofactor],one of which corresponds to the fully reduced dipyrromethane,
N[C@@H](CSCc1[nH]c(CC2NC(=O)C(CCC(=O)O)=C2CC(=O)O)c(CCC(=O)O)c1CC(=O)O)C(=O)O (some centres unmarked) [dipyrromethanone],,the 'oxidized' conformation of the cofactor is actually the partly reduced dipyrromethanone form
